Legend:
[1] = Selectivity index, ratio of CC50 for human CEM-T4 cells to EC50 for HIV1 infected in human CEM-T4 cells; format: toxicity, cell-based; details: read-out: Ratio CC50/EC50
[2] = Cytotoxicity against human CEM-T4 cells assessed as reduction in cell viability after 7 days by MTT assay; format: cell-based; details: for CC50 at 168 h: CEM-T4 cells; for CC50: 168 h
[3] = Half life of the compound in RPMI media at 37 degC; format: physicochemical; details: for half-life: RPMI media
[4] = system: Human immunodeficiency virus 1; test: Antiviral activity against HIV1 infected in human CEM-T4 cells assessed as protection against virus-induced cytopathogenicity by measuring reduction in p24 level preincubated with cells for 24 hrs followed by viral infection and measured after 8 days by MTT assay; format: functional, organism-based
[5] = Prodrug activation in RPMI media assessed as hydrolysis by measuring P-O bond cleavage
[6] = Stability of the compound in RPMI media up to 7 days; format: physicochemical; details: 168 h
[7] = Prodrug activation in RPMI media assessed as hydrolysis by measuring P-O bond cleavage measured after 24 days; details: 576 h
[8] = Human immunodeficiency virus 1, CEM-T4, read-out: EC50

Row | Structure (SMILES) | selectivity ratio [1] | CC50 at 168 h [2] [µM] | half-life [3] [h] | EC50 [4, 8] [µM] | CC50 [2] | Drug metabolism [5] | t1/2 [3] | EC50 [4] | Stability [6] | Drug metabolism [7]
1 | O=c1ccn([C@H]2CC[C@@H](COP(=O)(Nc3ccccc3)Oc3cccnc3)O2)c(=O)[nH]1 (stereo partly specified) | 31 | 225 | 120 | 7.3 | – | – | – | – | – | –
2 | Cc1cn([C@H]2C[C@H](N=[N+]=[N-])[C@@H](COP(=O)(Nc3cccnc3)Oc3ccccc3)O2)c(=O)[nH]c1=O (stereo partly specified) | > 11400 | > 400 | 168 | 0.035 | – | – | – | – | – | –
3 | O=c1ccn([C@H]2CC[C@@H](COP(=O)(Nc3cccnc3)Oc3cccnc3)O2)c(=O)[nH]1 (stereo partly specified) | > 364 | > 200 | 20 | 0.55 | – | – | – | – | – | –
4 | Cc1cn([C@H]2C[C@H](N=[N+]=[N-])[C@@H](COP(=O)(Nc3ccncc3)Oc3ccccn3)O2)c(=O)[nH]c1=O (stereo partly specified) | > 250 | > 50 | 120 | 0.16 | – | – | – | – | – | –
5 | Cc1cn([C@H]2C[C@H](N=[N+]=[N-])[C@@H](COP(=O)(Nc3ccccc3)Oc3cccnc3)O2)c(=O)[nH]c1=O (stereo partly specified) | > 30000 | 360 | 82 | < 0.012 | – | – | – | – | – | –
6 | Cc1cn([C@H]2C[C@H](N=[N+]=[N-])[C@@H](COP(=O)(Nc3cccnc3)Oc3ccncc3)O2)c(=O)[nH]c1=O (stereo partly specified) | – | – | – | – | Nd(Unstable) | Nd(Unstable) | Nd(Unstable) | Nd(Unstable) | – | –
7 | Cc1cn([C@H]2C[C@H](N=[N+]=[N-])[C@@H](COP(=O)(Nc3ccccc3)Oc3ccncc3)O2)c(=O)[nH]c1=O (stereo partly specified) | – | – | – | – | Nd(Unstable) | Nd(Unstable) | Nd(Unstable) | Nd(Unstable) | – | –
8 | Cc1cn([C@H]2C[C@H](N=[N+]=[N-])[C@@H](COP(=O)(Nc3cccnc3)Oc3cccnc3)O2)c(=O)[nH]c1=O (stereo partly specified) | > 10000 | > 200 | 27 | < 0.02 | – | – | – | – | – | –
9 | Cc1cn([C@H]2C[C@H](N=[N+]=[N-])[C@@H](COP(=O)(Nc3cccnc3)Oc3ccccn3)O2)c(=O)[nH]c1=O (stereo partly specified) | > 3300 | > 200 | 33 | 0.06 | – | – | – | – | – | –
10 | Cc1cn([C@H]2C[C@H](N=[N+]=[N-])[C@@H](COP(=O)(Nc3ccccc3)Oc3ccccc3)O2)c(=O)[nH]c1=O (stereo partly specified) | > 890 | > 66.8 | – | 0.075 | – | – | – | – | Stable | Metabolite_Detected
11 | Cc1cn([C@H]2C[C@H](N=[N+]=[N-])[C@@H](COP(=O)(Nc3ccncc3)Oc3ccccc3)O2)c(=O)[nH]c1=O (stereo partly specified) | > 8000 | > 400 | 192 | 0.05 | – | – | – | – | – | –
12 | Cc1cn([C@H]2C[C@H](N=[N+]=[N-])[C@@H](COP(=O)(Nc3ccccc3)Oc3ccccn3)O2)c(=O)[nH]c1=O (stereo partly specified) | > 1830 | > 22 | 45 | < 0.012 | – | – | – | – | – | –
13 | Cc1cn([C@H]2C[C@H](N=[N+]=[N-])[C@@H](COP(=O)(Nc3ccncc3)Oc3cccnc3)O2)c(=O)[nH]c1=O (stereo partly specified) | > 250 | > 50 | 105 | 0.2 | – | – | – | – | – | –
14 | Cc1cn([C@H]2C[C@H](N=[N+]=[N-])[C@@H](COP(=O)(Nc3ccncc3)Oc3ccncc3)O2)c(=O)[nH]c1=O (stereo partly specified) | – | – | – | – | Nd(Unstable) | Nd(Unstable) | Nd(Unstable) | Nd(Unstable) | – | –
15 | O=c1ccn([C@H]2CC[C@@H](COP(=O)(Nc3cccnc3)Oc3ccccc3)O2)c(=O)[nH]1 (stereo partly specified) | < 7.5 | 225 | 168 | > 30 | – | – | – | – | – | –
